Here are results for 30 molecules from patent publication US9066938B2, “GPBP-1 inhibition and its therapeutic use” (Fibrostatin S.L., priority 2012, dated 2015).

The first data set deals with A549 cells.
Experiment: not given
Format: cell-based. The note with it: 50 μM. On the procedure: FIG. 2. […] Cells were seeded in 96-well plates and treated with the indicated compound combinations. The cellular viability (cell number) was measured with alamarBlue® and arbitrary units of fluorescence after 36 h of treatment (vertical axis).
FIG. 7. […] A549 cells were seeded on 96-well culture plates and after 4 h were treated with the indicated concentrations of doxorubicin in absence or presence of T12 (50 μM) and/or CFTR-inhibitor-172 (25 μM). Cells were cultured for additional 36 h and cell viability assessed as in FIG. 2.
A549 human lung adenocarcinoma cancer cells (CLS Cell Lines Service) were used as an ex vivo model for the assessment of anti-tumor activity of specific compounds. Unless otherwise indicated A549 cells were cultured in DMEM: Ham's F12 medium supplemented with 2 mM L-glutamine and 10% fetal bovine serum. A549 cells resistant to doxorubicin (A549-DR) were obtained treating cells with 1 μM for 4 weeks. A549 cells were transfected with a plasmid that expresses GPBP-1 and further selected with G418 (Invitrogen) to obtain a cell line (A549-GPBP) that constitutively expresses GPBP-1.
Cytotoxicity assays were performed with alamarBlue® reagent (Invitrogen) according to manufacturer's instructions. A549 cells were seeded on 96-well culture plates (7,500 cells/well) and allowed to settle during 4 h. Then, cells were cultured with individual peptidomimetics at concentrations ranging from 0 to 50 μM, in presence of doxorubicin at concentrations ranging from 0 to 10 μM for 36 h. JLSM cells were harvested by treatment with 0.25% trypsin (Lonza) and plated on collagen I coated 96-well black culture plate (Perkin Elmer) at a density of 10.000 cells per cm^2. After 4 h settling, cells were treated with different peptidomimetics (with or without doxorubicin) for 36 h. Subsequently alamarBlue® reagent was added and incubation maintained for 3 h. Fluorescence was measured using 560EX nm/590EM nm filter settings with a SpectraMax GeminiXPS (Molecular Devices). Blank wells containing media were used to determine background fluorescence.
The activity shown for each compound in Table 1 is the factor by which doxorubicin LC50 is reduced by the compound at a 50-μM concentration in A549 cell cultures. […] The symbols −, −/+, +, ++, +++, ++++ in the third column are used to show relative activities of compounds in a simplified way.
Take `CCOC(=O)CCc1cc(O)ccc1-c1ccc(-c2cccnc2)c(CO)c1` [13c]: the “toxicity of the compound by itself in A549 cultures” value (from here on “toxicity of the compound by itself”) is given as “significantly toxic”.

For `CCCOc1ccc(-c2ccc(-c3cccc(C)c3)c(C)c2)c(CCC(=O)O)c1` [24a], the “toxicity of the compound by itself” value is on record as “significantly toxic”.

For the molecule `CCCOc1ccc(-c2ccc(-c3cccc(C(F)(F)F)c3)c(C)c2)c(CCC(=O)O)c1` [24c], the “toxicity of the compound by itself” value was “significantly toxic”.

Staying with this data set, now noted: CFTR-inhibitor-172 25 μM, T12 50 μM, 36 h.
Turning to `O=C(O)c1ccc(C=C2SC(=S)N(c3cccc(C(F)(F)F)c3)C2=O)cc1` [CFTR/ABCC7 inhibitor 172, 3-[(3-Trifluoromethyl)phenyl]-5-[(4-carboxyphenyl)methylene]-2-thioxo-4-thiazolidinone, reference compound], the “cell viability in cultures treated with T12 with or without doxorubicin” value is reported as “significantly reduced cell viability”.

The data set is the same for the next values; noted with them: compound at 10 μM, A549 cell cultures.
With `CCOC(=O)CCc1cc(O)ccc1-c1ccc(-c2cccnc2)c(CO)c1` [13c], the “Activity as enhancer of doxorubicin-induced cell death, relative activity symbol” value (“Activity as enhancer … relative activity symbol” for short) is reported as “+”.

In the case of `CCCOc1ccc(-c2ccc(-c3cccc(C(F)(F)F)c3)c(C)c2)c(CCC(=O)O)c1` [24c], the “Activity as enhancer … relative activity symbol” value is “++”.

The data set is the same for the next values; noted with them: compound at 25 μM, A549 cell cultures.
Turning to `COc1ccc(-c2ccc(-c3ccc(OC)c(Cl)c3)c(C)c2)c(CCC(=O)O)c1` [T55], the “Activity as enhancer … relative activity symbol” value is listed as “++++”.

Turning to `CCCOc1ccc(-c2ccc(-c3cccc(C)c3)c(C)c2)c(CCC(=O)O)c1` [24a], the “Activity as enhancer … relative activity symbol” value is reported as “++”.

The data set is the same for the next values; noted with them: compound at 50 μM, A549 cell cultures.
As to `O=C(O)CCc1cc(O)ccc1-c1ccc(-c2cccnc2)c(CO)c1`, the “Activity as enhancer … relative activity symbol” value is “+”.

For the molecule `COc1ccc(-c2ccc(-c3cccc(C(F)(F)F)c3)c(C)c2)c(CCC(=O)O)c1`, the “Activity as enhancer … relative activity symbol” value was “+++”.

For `COc1ccc(-c2ccc(-c3ccc(OC)c(C)c3)c(C)c2)c(CCC(=O)O)c1`, the “Activity as enhancer … relative activity symbol” value is “++++”.

Turning to `O=C(O)CCc1cc(O)ccc1-c1ccc(-c2cccc(C(F)(F)F)c2)c(CO)c1`, the “Activity as enhancer … relative activity symbol” value is “−”.

Regarding `COc1ccc(-c2ccc(-c3cccnc3)c(CO)c2)c(CCC(=O)O)c1`, the “Activity as enhancer … relative activity symbol” value is given as “−”.

On to `Cc1cc(-c2ccc(O)cc2CCC(=O)O)ccc1-c1cccc(C(F)(F)F)c1`, for which the “Activity as enhancer … relative activity symbol” value is “+”.

`CCCCCCCCCCCCCCCC(=O)Oc1ccc(-c2ccc(-c3cccc(C)c3)c(C)c2)c(CCC(=O)O)c1`: the “Activity as enhancer … relative activity symbol” value is “−”.

In the case of `O=C(O)CCc1cc(O)ccc1-c1ccc(-c2cccc(C(F)(F)F)c2)c(C(F)F)c1`, the “Activity as enhancer … relative activity symbol” value is on record as “++”.

Consider `COc1ccc(-c2ccc(-c3cccc(C)c3)c(CO)c2)c(CCC(=O)O)c1`, for which the “Activity as enhancer … relative activity symbol” value is on record as “−/+”.

As for `Cc1cccc(-c2ccc(-c3ccc(O)cc3CCC(=O)O)cc2C(F)F)c1`, the “Activity as enhancer … relative activity symbol” value is “++”.

For the molecule `O=C(O)CCc1cc(O)ccc1-c1ccc(-c2cccnc2)c(CF)c1`, the “Activity as enhancer … relative activity symbol” value was “+”.

For `COc1ccc(-c2ccc(-c3cccnc3)c(CF)c2)c(CCC(=O)O)c1`, the “Activity as enhancer … relative activity symbol” value was “+++”.

With `Cc1cccc(-c2ccc(-c3ccc(OCC(=O)O)cc3CCC(=O)O)cc2C)c1`, the “Activity as enhancer … relative activity symbol” value was “−”.

For the molecule `COc1ccc(-c2ccc(-c3cccnc3)c(C)c2)c(CCC(=O)O)c1`, the “Activity as enhancer … relative activity symbol” value is on record as “++++”.

With `O=C(O)CCc1cc(O)ccc1-c1ccc(-c2cccc(C(F)(F)F)c2)c(CF)c1`, the “Activity as enhancer … relative activity symbol” value is listed as “++++”.

In the case of `Cc1cccc(-c2ccc(-c3ccc(O)cc3CCC(=O)O)cc2CO)c1`, the “Activity as enhancer … relative activity symbol” value is “−/+”.

In the case of `O=C(O)CCc1cc(O)ccc1-c1ccc(-c2cccnc2)c(C(F)F)c1`, the “Activity as enhancer … relative activity symbol” value is on record as “+”.

As for `CCOC(=O)CCc1cc(O)ccc1-c1ccc(-c2cccc(C(F)(F)F)c2)c(C)c1`, the “Activity as enhancer … relative activity symbol” value is “−?”.

In the case of `Cc1cccc(-c2ccc(-c3ccc(O)cc3C(C)C)cc2CCC(=O)O)c1`, the “Activity as enhancer … relative activity symbol” value is recorded as “+”.

For the molecule `C[n+]1cccc(-c2ccc(-c3ccc(O)cc3CCC(=O)[O-])cc2CO)c1`, the “Activity as enhancer … relative activity symbol” value is on record as “−”.

Turning to `Cc1cccc(-c2ccc(-c3ccc(O)cc3CCC(=O)O)cc2C)c1`, the “Activity as enhancer … relative activity symbol” value is “++”.

Take `Cc1cccc(-c2ccc(-c3ccc(O)cc3CCO)cc2CCC(=O)O)c1`: the “Activity as enhancer … relative activity symbol” value is recorded as “+”.

`COc1ccc(-c2ccc(-c3cccc(C(F)(F)F)c3)c(CO)c2)c(CCC(=O)O)c1`: the “Activity as enhancer … relative activity symbol” value is given as “+”.

With `Cc1cccc(-c2ccc(-c3ccc(O)cc3CCC(=O)O)cc2CF)c1`, the “Activity as enhancer … relative activity symbol” value is listed as “++”.

The subject of the next data set is CSC derived from a uterine cancer. Put plainly: Sensitivity of CSC derived from a uterine cancer. It is filed as cell-based. Particulars: data not shown.
As to `COc1ccc(-c2ccc(-c3ccc(OC)c(Cl)c3)c(C)c2)c(CCC(=O)O)c1` [T55], the “sensitivity of uterine cancer CSC to the compound” value is given as “highly sensitive”.

The target in the next data set is T1, human recombinant GPBP-1 (Homo sapiens, UniProt Q9Y5P4).
T1 construct: made in house; host or cells: Pichia pastoris
T1 sequence (Q9Y5P4 1-624): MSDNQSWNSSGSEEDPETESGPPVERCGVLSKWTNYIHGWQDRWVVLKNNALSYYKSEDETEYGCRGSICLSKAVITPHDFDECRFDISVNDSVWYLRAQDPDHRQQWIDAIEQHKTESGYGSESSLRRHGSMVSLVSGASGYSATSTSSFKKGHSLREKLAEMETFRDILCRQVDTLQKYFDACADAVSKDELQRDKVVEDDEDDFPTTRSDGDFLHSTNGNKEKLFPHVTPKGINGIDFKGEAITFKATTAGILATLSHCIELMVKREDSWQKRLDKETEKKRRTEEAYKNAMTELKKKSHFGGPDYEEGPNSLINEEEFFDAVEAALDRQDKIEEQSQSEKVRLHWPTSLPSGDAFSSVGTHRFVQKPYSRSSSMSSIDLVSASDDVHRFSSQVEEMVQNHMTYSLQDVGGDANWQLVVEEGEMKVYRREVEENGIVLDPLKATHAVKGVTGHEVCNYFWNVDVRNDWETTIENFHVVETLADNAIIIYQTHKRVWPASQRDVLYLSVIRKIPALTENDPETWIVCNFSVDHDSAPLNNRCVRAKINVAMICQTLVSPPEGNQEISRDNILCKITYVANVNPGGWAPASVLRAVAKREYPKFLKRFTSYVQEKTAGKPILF
Experiment: not given
The note with it: Saus et al. 2008, 2010; cited from earlier work.
In the case of “LATLSHCIELMVKR (SEQ ID NO: 8) [Q2, isolated peptide representing 260SHCIE264 and flanking regions of GPBP-1]”, the “inhibition of GPBP-1 kinase activity” value is “efficiently inhibits”.
